Patent publication US9499543B2, “Polymorph forms” (RaQualia Pharma Inc., priority 2013, dated 2016)

Key:
[1] = Photostability / storage stability study; type: physicochemical
Protocol: Photostability samples are stored in open dishes with quartz glass covers and a second set of 25° C./60% RH, and 40° C./75% RH samples which are stored in open round amber glass bottles covered with gauze.

[2] = Hygroscopicity study by dynamic vapor sorption (DVS) analysis; type: physicochemical; settings: under 40%, 80%, and 90% relative humidity (RH) at 25 °C, comparing with compound prepared in EXAMPLE 2
Protocol: Hygroscopicity study by dynamic vapor sorption analysis (DVS)
Hygroscopicity study is performed using Surface Measurement Systems DVS-1. The sample is placed on a microbalance in the instrument and the weight change during the sorption/desorption cycle at 25° C. is monitored. One of the sorption/desorption programs consists of a sorption scan from 0 to 95% relative humidity (RH) and a desorption scan from 95 to 10% RH. The other consists of a sorption scan from 40 to 95% RH and desorption scan from 95 to 0% RH, followed by a second sorption scan from 0 to 40% RH. Both programs are carried out at 5% RH increments and the sample is allowed to equilibrate for 360 minutes or until equilibration had been attained at each step. At the end of the DVS experiment the sample is measured by PXRD.

loss in potency ([1]; any of the stability samples over 3 months): No significant loss
changes in the appearance, the X-ray diffraction patterns, and IR spectra ([1]; storage over 3 months, photostability, 25°C/60% RH and 40°C/75% RH samples): no significant changes
moisture gain [2]: < 2%
SMILES: CN1N=C2CCN(C(=O)[C@@H](COCc3ccccc3)NC(=O)C(C)(C)N)C[C@@]2(Cc2ccccc2)C1=O.O=C(O)C(O)C(O)C(=O)O [Polymorph Form I, 2-amino-N-[2-(3a-(R)-benzyl-2-methyl-3-oxo-2,3,3a,4,6,7-hexahydro-pyrazolo[4,3-c]pyridin-5-yl)-1-(R)-benzyloxymethyl-2-oxo-ethyl]-isobutyramide L-tartrate Polymorph Form I]
